Test results reported in article PMC5707064, “Proteoglycan-targeting applied to hypoxia-activated prodrug therapy in chondrosarcoma: first proof-of-concept” (Oncotarget, 2017).

How the values were obtained:
[1] = test system: HEMC-SS xenograft tumors; test: Characterization of treated tumors (histology, western blot, immunohistochemistry); type: in vivo, SCID mice; settings: for γH2AX-positive cells in pimonidazole-positive hypoxic tumor areas: immunostaining on consecutive tumor sections
Description: The day after the last dose, 50% of animals of each group were euthanized by CO2 inhalation, and tumors were sampled for histology and immunohistochemistry analyses (n≥3 tumors samples per group of treatment).
Approximately 30 μg of proteins from tumors (n = 3 independent tumor samples per group of treatment) recovered one day after last dose were loaded onto 10% acrylamide gels and separated by SDS-PAGE. Proteins were then transferred to nitrocellulose membranes (Millipore) and incubated with specific primary antibodies p53S15 (Cell Signaling), p21 (Santa Cruz), p-Chk1 (S345) (Cell Signaling) or GAPDH (Santa Cruz) used as housekeeping protein. Antibody-antigen interaction was evidenced by chemiluminescence (Amersham) using HRP-conjugated secondary antibodies (Southern Biotech). Signal was detected and quantified using Image Lab software (BioRad). Data are represented as means ± SD. Statistical significance was determined using one-way ANOVA followed by Tukey's post-hoc multiple comparisons test. Results were considered significant at p < 0.05.
For tumors, the exogenous hypoxia marker pimonidazole hydrochloride (Hypoxyprobe™) was i.p.-injected at 60 mg/kg one hour before mice were euthanized. Tumors were removed, fixed in 10% neutral buffered formalin, and embedded in paraffin. For spheroid cultures, pimonidazole was added at a final concentration of 200 μM two hours before fixation and paraffin-embedding.
Five μm-thick sections were cut and adhered to poly-L-Lysine-coated glass microscope slides. After deparaffinization and rehydration, slides were stained by haematoxylin–eosin (H&E) or Alcian blue (pH 1) to visualize aggrecan or used for immunohistochemistry. After antigen retrieval, endogenous peroxidase quench and saturation, slides were incubated with the primary antibody: anti-Ki 67 (Abcam) rabbit polyclonal antibody (1/2000, 11 hours, RT), anti-pimonidazole (Hypoxyprobe™) mouse monoclonal antibody (1/100, 30 minutes, RT) or anti-phospho-histone-H2AX (Merck Millipore) mouse monoclonal antibody (1/2000, 11 hours, RT). HRP-conjugated rabbit anti-mouse IgG1 secondary antibody (Hypoxyprobe, 1/100, 30 minutes, RT) was used to detect pimonidazole adduct and a biotinylated goat anti-mouse IgG1 secondary antibody (Vector Laboratories, 1/500, 1 hour) was used to detect anti-Ki-67 and anti-phospho-histone-H2AX. Biotin was then complexed with streptavidin-coupled HRP (Vector Laboratories, 1/500, 30 minutes). HRP was detected using a DAB ultravision detection system (Thermo Scientific).

[2] = test system: human osteosarcoma Saos-2 cells; test: Cytotoxic activity on osteosarcoma Saos-2 cells; type: cell-based; settings: hypoxic conditions, unpublished data of the authors
[3] = test system: HEMC-SS cells; test: Cell cycle determination and apoptosis (Annexin V) evaluation by flow cytometry; type: cell-based, human
Description: At 24 hours before treatment, 1.10^6 HEMC-SS cells were seeded in 6-well plates (Nunc) at 3 mL/well of corresponding culture media. Cells were treated with 8-QA compound at 25 μM, 50 μM, or 100 μM final concentrations for 24 hours, under either normoxic (21% O2, 5% CO2, 37°C) or hypoxic (N2, O2 < 0.3%, N2, 37°C) conditions. After incubation, the cells were harvested by trypsinization. The cell suspension containing both floating and adherent cells was centrifuged (400 g, 8 min at +4°C) in PBS. Cell cycle analyses were carried out by resuspending cells in 500 μL of ribonuclease 1 (1 mg/mL) added with 500 μL of propidium iodide (1 mg/mL) (Sigma Aldrich), and apoptotic cells were detected using the Annexin V-FITC kit (Miltenyi Biotec). The cell cycle distribution and proportion of apoptotic cells were analyzed by flow cytometrey (LSR II flow cytometer, BD Biosciences). Experiments were performed in triplicates. Data are represented as means ± SD. For cell cycle analyses, statistical significance was determined using two-way ANOVA followed by Tukey's post-hoc multiple comparison test. For Annexin V test, significance was determined using two-way ANOVA followed by Bonferroni's post-hoc multiple comparison test.

[4] = tumors sampled one day after last injection

Structure (SMILES)	γH2AX-positive cells in pimonidazole-positive hypoxic tumor areas [1]	Mitotic index in tumor tissues ([1]; H&E, tumors sampled at D41, 47.0 μmol/kg i.v. q4d x 6)	Phosphorylated-p53 (S15) in tumors, western blot [1, 4]	p21 in tumors, western blot [1, 4]	p-CHK1 in treated tumor samples, western blot [1, 4]	IC50 [2]	Cell cycle distribution in hypoxia ([3]; hypoxia (N2, O2 < 0.3%), 25, 50, 100 μM for 24 hours)	Annexin V positive cells (cell death vs control) ([3]; hypoxia, 100 μM, 24 hours)	Cell cycle distribution in normoxia ([3]; normoxia (21% O2), 25, 50, 100 μM for 24 hours)
CCCNP(=O)(OCc1cnc([N+](=O)[O-])n1C)N(CCCl)CCCl (centres unmarked) [compound 8]	did not cause any γH2AX-positive cells								
C[N+](C)(C)CCCNP(=O)(OCc1ccccc1)N(CCCl)CCCl (centres unmarked) [10-QA]	did not cause any γH2AX-positive cells								
Cn1c(COP(=O)(NCCC[N+](C)(C)C)N(CCCl)CCCl)cnc1[N+](=O)[O-] (centres unmarked) [8-QA]	strong increase of γH2AX-positive cells	9.7 ± 9.0 mitosis per 10 fields	significant increased of phosphorylated-p53 (S15)	induction of p21	no increase of p-CHK1	132 ± 29 µM	high accumulation of cells in S and SubG0/G1 phases	4.1 fold	increase in S-phase
